pIC50: −log10 of the molar value.
Legend:
[1] = Terminal half life in Sprague-Dawley rat at 0.1 ml/kg, po; format: ADME; conditions: in vivo, read-out: beta t1/2 (converted)
[2] = target: Prostaglandin E2 receptor EP2 subtype (Mus musculus, UniProt Q62053); test: Antagonist activity at EP2 receptor in C57BL/6 mouse trachea assessed as inhibition of PGE2-induced relaxation in rings of trachea pretreated for 30 mins in presence of carbachol followed by PGE2 relaxation; format: functional, tissue-based
Prostaglandin E2 receptor EP2 subtype, sequence (Q62053 whole entry): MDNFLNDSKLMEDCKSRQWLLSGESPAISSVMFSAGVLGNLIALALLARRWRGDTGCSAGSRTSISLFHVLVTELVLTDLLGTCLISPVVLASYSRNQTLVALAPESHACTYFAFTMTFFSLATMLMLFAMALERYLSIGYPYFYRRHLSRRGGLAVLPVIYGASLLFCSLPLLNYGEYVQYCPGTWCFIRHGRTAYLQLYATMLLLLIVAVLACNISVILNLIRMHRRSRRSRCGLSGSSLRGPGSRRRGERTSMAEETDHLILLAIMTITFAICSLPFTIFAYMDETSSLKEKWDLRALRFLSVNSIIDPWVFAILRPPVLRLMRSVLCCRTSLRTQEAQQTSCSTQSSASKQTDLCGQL

[3] = Oral bioavailability in Sprague-Dawley rat at 0.1 ml/kg; format: ADME, organism-based; conditions: in vivo
SK-N-AS [4] = test: Antitumor activity against human SK-N-AS cells xenografted in athymic nude mouse assessed as reduction in tumor proliferation at 10 mg/kg, ip administered once daily for 18 days by Ki-67 staining based immunohistochemistry analysis relative to control; format: functional; design: scale not given: the % may be the effect or the level left; conditions: time 18 day
SK-N-AS [5] = test: Antitumor activity against human SK-N-AS cells xenografted in athymic nude mouse assessed as reduction in tumor proliferation at 20 mg/kg, ip administered once daily for 18 days by Ki-67 staining based immunohistochemistry analysis relative to control; format: functional; design: scale not given: the % may be the effect or the level left; conditions: time 18 day

COc1ccc2cc(OCC3(C(=O)O)CN(C(=O)c4ccc(F)cc4)C3)ccc2c1 [PF-04418948]
half-life [1]: 528 min
pIC50 [2]: 8.57
bioavailability [3]: 78%

CCc1nnc(NS(=O)(=O)c2ccc(NC(=S)NC(=O)/C=C/c3ccc(F)cc3)cc2)s1
Activity (SK-N-AS [4]): 25%
Activity (SK-N-AS [5]): 55%
